# Results as given in patent publication US5977133A, “Pyridone antibiotic with improved safety profile” (priority 1998, dated 1999).
# How the values were obtained:
# Type in all cases: cell-based
# C. difficile = test: In vitro MIC, agar dilution; settings: Clostridioides difficile; C. difficile, 10 isolates; read-out: MIC90
# S. pneumoniae (CiproR) = test: In vitro MIC, agar dilution; settings: Streptococcus pneumoniae, read-out: MIC Range
# N. gonorrhoeae = test: In vitro MIC, agar dilution; settings: Neisseria gonorrhoeae
# E. faecalis (VanS) = test: In vitro MIC, agar dilution; settings: Enterococcus faecalis
# S. pneumoniae (PenR) = test: In vitro MIC, agar dilution; settings: Streptococcus pneumoniae
# E. faecium (CiproR) = test: In vitro MIC, agar dilution; settings: Enterococcus faecium, read-out: MIC Range
# S. epidermidis (CiproS) = test: In vitro MIC, agar dilution; settings: Staphylococcus epidermidis
# Legionella spp. = test: microbe, parasite or virus in culture; settings: Legionella
# S. epidermidis (CiproR) = test: In vitro MIC, agar dilution; settings: Staphylococcus epidermidis
# C. freundii = test: In vitro MIC, agar dilution; settings: Citrobacter freundii
# Shigella spp. = test: microbe, parasite or virus in culture; settings: read-out: MIC Range
# Enterococcus spp. (VanR) = test: In vitro MIC, agar dilution; settings: Enterococcus spp. (VanR), 21 isolates
# H. pylori = test: In vitro MIC, agar dilution; settings: Helicobacter pylori
# Salmonella spp. = test: In vitro MIC, agar dilution; settings: 23 isolates
# How it was run: (§1)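 Agar dilution plates were inoculated with ~10^4 CFU per spot by replicator, using 1:100 dilutions (1:10 for slow growers) and incubated at 35–37 °C for 20–24 h. MIC is the lowest concentration giving no growth, where slight haze or sparse colonies count as none, judged against a compound-free BHI agar control.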
# E. coli = test: In vitro MIC, agar dilution; settings: Escherichia coli, 25 isolates
# How it was run: as §1
# M. pneumoniae = test: In vitro MIC, agar dilution; settings: Mycoplasmoides pneumoniae, read-out: MIC Range
# E. faecium (CiproS) = test: In vitro MIC, agar dilution; settings: Enterococcus faecium
# S. pyogenes = test: In vitro MIC, agar dilution; settings: Streptococcus pyogenes
# P. mirabilis = test: In vitro MIC, agar dilution; settings: Proteus mirabilis
# Klebsiella spp. = test: In vitro MIC, agar dilution
# M. catarrhalis = test: In vitro MIC, agar dilution; settings: Moraxella catarrhalis
# Enterobacter spp. = test: In vitro MIC, agar dilution
# S. aureus (CiproS) = test: In vitro MIC, agar dilution; settings: Staphylococcus aureus
# Providencia spp. = test: In vitro MIC, agar dilution; settings: Providencia spp., 28 isolates
# E. faecium (VanS) = test: In vitro MIC, agar dilution; settings: Enterococcus faecium
# B. fragilis = test: In vitro MIC, agar dilution; settings: Bacteroides fragilis
# H. influenzae = test: In vitro MIC, agar dilution; settings: Haemophilus influenzae
# S. aureus (CiproR) = test: In vitro MIC, agar dilution; settings: Staphylococcus aureus
# M. avium = test: In vitro MIC, agar dilution; settings: Mycobacterium avium, M. avium, 20 isolates
structure (smiles),measurement,setting,value
"N[C@@H]1[C@H]2CN(c3nc4c(cc3F)c(=O)c(C(=O)O)cn4-c3ccc(F)cc3F)C[C@@H]12 [Trovafloxacin, trovafloxacin]",MIC90,C. difficile,2 µg/mL
same,MIC,S. pneumoniae (CiproR),0.5 to 1 µg/mL
same,MIC90,N. gonorrhoeae,0.06 µg/mL
same,MIC,N. gonorrhoeae; read-out: MIC Range,0.015 to 0.12 µg/mL
same,MIC50,"N. gonorrhoeae; N. gonorrhoeae, 12 isolates, read-out: MIC50",0.015 µg/mL
same,MIC,E. faecalis (VanS); read-out: MIC Range,0.25 to 1 µg/mL
same,MIC50,"E. faecalis (VanS); E. faecalis (VanS), 17 isolates, read-out: MIC50",0.5 µg/mL
same,MIC90,"E. faecalis (VanS); E. faecalis (VanS), 17 isolates, read-out: MIC90",1 µg/mL
same,MIC90,S. pneumoniae (PenR),0.25 µg/mL
same,MIC,S. pneumoniae (PenR); read-out: MIC Range,0.06 to 0.25 µg/mL
same,MIC50,"S. pneumoniae (PenR); S. pneumoniae (PenR), 25 isolates, read-out: MIC50",0.25 µg/mL
same,MIC,E. faecium (CiproR),2 to 32 µg/mL
same,MIC90,S. epidermidis (CiproS),0.06 µg/mL
same,MIC50,"S. epidermidis (CiproS); S. epidermidis (CiproS), 23 isolates, read-out: MIC50",0.06 µg/mL
same,MIC,"S. epidermidis (CiproS); S. epidermidis (CiproS), 23 isolates, read-out: MIC Range",0.015 to 0.06 µg/mL
same,MIC50,Legionella spp.,0.12 µg/mL
same,MIC90,Legionella spp.,0.25 µg/mL
same,MIC,Legionella spp.; read-out: MIC Range,0.12 to 0.25 µg/mL
same,MIC,S. epidermidis (CiproR); read-out: MIC Range,1 to 16 µg/mL
same,MIC50,"S. epidermidis (CiproR); S. epidermidis (CiproR), 11 isolates, read-out: MIC50",4 µg/mL
same,MIC90,"S. epidermidis (CiproR); S. epidermidis (CiproR), 11 isolates, read-out: MIC90",16 µg/mL
same,MIC90,C. freundii,0.5 µg/mL
same,MIC50,"C. freundii; C. freundii, 20 isolates, read-out: MIC50",0.06 µg/mL
same,MIC,"C. freundii; C. freundii, 20 isolates, read-out: MIC Range",0.003 to 1 µg/mL
same,MIC,Shigella spp.,0.015 to 0.06 µg/mL
same,MIC50,Enterococcus spp. (VanR); read-out: MIC50,1 µg/mL
same,MIC90,Enterococcus spp. (VanR); read-out: MIC90,1 µg/mL
same,MIC,Enterococcus spp. (VanR); read-out: MIC Range,0.06 to 32 µg/mL
same,MIC90,H. pylori,0.5 µg/mL
same,MIC50,"H. pylori; H. pylori, 17 isolates, read-out: MIC50",0.12 µg/mL
same,MIC,"H. pylori; H. pylori, 17 isolates, read-out: MIC Range",0.06 to 1 µg/mL
same,MIC,Salmonella spp.,0.03 to 1 µg/mL
same,MIC50,Salmonella spp.; read-out: MIC50,0.06 µg/mL
same,MIC90,Salmonella spp.; read-out: MIC90,0.12 µg/mL
same,MIC,E. coli,0.015 to 0.03 µg/mL
same,MIC50,E. coli; read-out: MIC50,0.03 µg/mL
same,MIC90,E. coli; read-out: MIC90,0.03 µg/mL
same,MIC,M. pneumoniae,0.12 to 0.25 µg/mL
same,MIC,E. faecium (CiproS); read-out: MIC Range,0.25 to 1 µg/mL
same,MIC50,"E. faecium (CiproS); E. faecium (CiproS), 16 isolates, read-out: MIC50",0.5 µg/mL
same,MIC90,"E. faecium (CiproS); E. faecium (CiproS), 16 isolates, read-out: MIC90",1 µg/mL
same,MIC90,S. pyogenes,0.25 µg/mL
same,MIC50,"S. pyogenes; S. pyogenes, 21 isolates, read-out: MIC50",0.12 µg/mL
same,MIC,"S. pyogenes; S. pyogenes, 21 isolates, read-out: MIC Range",0.06 to 1 µg/mL
same,MIC90,P. mirabilis,0.5 µg/mL
same,MIC,P. mirabilis; read-out: MIC Range,0.25 to 0.5 µg/mL
same,MIC50,"P. mirabilis; P. mirabilis, 20 isolates, read-out: MIC50",0.25 µg/mL
same,MIC90,Klebsiella spp.; Klebsiella,0.25 µg/mL
same,MIC50,"Klebsiella spp.; Klebsiella spp., 29 isolates, read-out: MIC50",0.12 µg/mL
same,MIC,"Klebsiella spp.; Klebsiella spp., 29 isolates, read-out: MIC Range",0.015 to 0.5 µg/mL
same,MIC50,M. catarrhalis,0.03 µg/mL
same,MIC90,M. catarrhalis,0.06 µg/mL
same,MIC,"M. catarrhalis; M. catarrhalis, 18 isolates, read-out: MIC Range",0.015 to 0.25 µg/mL
same,MIC90,Enterobacter spp.; Enterobacter,0.12 µg/mL
same,MIC50,"Enterobacter spp.; Enterobacter spp., 35 isolates, read-out: MIC50",0.12 µg/mL
same,MIC,"Enterobacter spp.; Enterobacter spp., 35 isolates, read-out: MIC Range",0.015 to 0.5 µg/mL
same,MIC50,S. aureus (CiproS),0.03 µg/mL
same,MIC90,S. aureus (CiproS),0.03 µg/mL
same,MIC,"S. aureus (CiproS); S. aureus (CiproS), 21 isolates, read-out: MIC Range",0.008 to 0.03 µg/mL
same,MIC50,Providencia spp.; read-out: MIC50,0.25 µg/mL
same,MIC90,Providencia spp.; read-out: MIC90,2 µg/mL
same,MIC,Providencia spp.; read-out: MIC Range,0.03 to 2 µg/mL
same,MIC,E. faecium (VanS); read-out: MIC Range,0.25 to 4 µg/mL
same,MIC50,"E. faecium (VanS); E. faecium (VanS), 11 isolates, read-out: MIC50",2 µg/mL
same,MIC90,"E. faecium (VanS); E. faecium (VanS), 11 isolates, read-out: MIC90",2 µg/mL
same,MIC90,B. fragilis,0.5 µg/mL
same,MIC,B. fragilis; read-out: MIC Range,0.12 to 1 µg/mL
same,MIC50,"B. fragilis; B. fragilis, 18 isolates, read-out: MIC50",0.25 µg/mL
same,MIC90,H. influenzae,0.03 µg/mL
same,MIC50,"H. influenzae; H. influenzae, 18 isolates, read-out: MIC50",0.015 µg/mL
same,MIC,"H. influenzae; H. influenzae, 18 isolates, read-out: MIC Range",0.008 to 0.06 µg/mL
same,MIC,S. aureus (CiproR); read-out: MIC Range,0.25 to 4 µg/mL
same,MIC50,"S. aureus (CiproR); S. aureus (CiproR), 25 isolates, read-out: MIC50",2 µg/mL
same,MIC90,"S. aureus (CiproR); S. aureus (CiproR), 25 isolates, read-out: MIC90",2 µg/mL
same,MIC50,M. avium; read-out: MIC50,32 µg/mL
same,MIC90,M. avium; read-out: MIC90,64 µg/mL
same,MIC,M. avium; read-out: MIC Range,8 to 128 µg/mL
